PMC6222516 (Molecules : A Journal of Synthetic Chemistry and Natural …, 2018)

Legend:
adenosine A3 receptor = biological target: T1, adenosine A3 receptor (Homo sapiens, UniProt P0DMS8); assay: Radioligand competition binding assay, adenosine A3 receptor ([3H]-NECA); parameters: PEI (potency efficiency index), ligand efficiency for A3 receptor: dose or concentration left out as unconfirmed; conditions: for PEI (potency efficiency index), ligand efficiency for A3 receptor: PEI = (inhibition, ratio) / (MW, kD); for inhibition at 10 µM: read-out: % Inhib. 10 μM A3
T1 sequence (P0DMS8 1-318): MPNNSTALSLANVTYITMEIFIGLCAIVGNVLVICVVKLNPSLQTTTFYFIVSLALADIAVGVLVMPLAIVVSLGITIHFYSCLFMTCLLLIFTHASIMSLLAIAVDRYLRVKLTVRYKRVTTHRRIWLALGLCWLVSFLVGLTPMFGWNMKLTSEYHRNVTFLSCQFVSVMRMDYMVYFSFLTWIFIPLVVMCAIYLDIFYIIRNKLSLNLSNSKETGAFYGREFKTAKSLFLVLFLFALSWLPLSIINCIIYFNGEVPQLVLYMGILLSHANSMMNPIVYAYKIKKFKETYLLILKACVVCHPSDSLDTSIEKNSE
Protocol: (§1) The 10 mM stock solutions were prepared by dissolving 0.5–1 mg of the tested compounds in suitable volume of DMSO. Next, dilutions in binding buffer were prepared to obtain concentration ranges 10^−10–10^−5 or 10^−9–10^−4 depending upon the compound potency. The concentration-response curves of the standard controls were made.
Non-specific binding was determined in the presence of R-PIA 100 μM (Sigma P4532, St. Louis, MO, USA). The reaction mixture (Vt: 200 μL/well) was incubated at 25 °C for 180 min, after was filtered and washed six times with 250 μL wash buffer (Tris-HCl 50 mM pH = 7.4), before measuring in a microplate beta scintillation counter (Microbeta Trilux, PerkinElmer, Madrid, Spain).

adenosine A2A receptor = adenosine A2A receptor (Homo sapiens, UniProt P29274); conditions: read-out: % Inhib. 10 μM A2A
Sequence of adenosine A2A receptor (P29274 whole entry): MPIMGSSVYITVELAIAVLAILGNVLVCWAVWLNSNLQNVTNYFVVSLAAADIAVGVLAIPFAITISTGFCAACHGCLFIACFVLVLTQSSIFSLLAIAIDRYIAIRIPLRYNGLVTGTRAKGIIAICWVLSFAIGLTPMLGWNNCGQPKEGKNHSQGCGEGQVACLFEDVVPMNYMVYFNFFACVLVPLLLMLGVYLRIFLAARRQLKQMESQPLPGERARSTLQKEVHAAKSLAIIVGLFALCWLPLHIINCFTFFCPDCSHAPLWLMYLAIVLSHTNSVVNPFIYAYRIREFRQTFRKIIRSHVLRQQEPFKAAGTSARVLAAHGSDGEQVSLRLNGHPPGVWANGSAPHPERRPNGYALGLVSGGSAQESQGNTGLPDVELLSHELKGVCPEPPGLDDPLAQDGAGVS
Protocol: As the standard control for the studied receptor-binding CGS15943, non-nucleoside agonist was applied. Non-specific binding was determined in the presence of NECA.
as §1
Non-specific binding was determined in the presence of NECA 50 μM (Sigma E2387, St. Louis, MO, USA).

Ki (adenosine A3 receptor) [µM]	PEI (potency efficiency index), ligand efficiency for A3 receptor (adenosine A3 receptor)	inhibition at 10 µM (adenosine A3 receptor) [%]	inhibition at 10 µM (adenosine A2A receptor) [%]	SMILES
2.21	1.61	67 ± 1	2 ± 1	Nc1ncnc2c1ncn2[C@@H]1O[C@H](CO)[C@@H](O)[C@H]1OCOCCCc1ccccc1 [Compound 12, 2′-O-(3-Phenylpropyleneoxymethyl)-adenosine]
	0.20	5 ± 1	3 ± 1	Nc1ncnc2c1ncn2[C@H]1C[C@H](O)[C@@H](CO)O1 [2′-deoxyadenosine, reference compound]
	2.51			CC[C@@H]1Cn2c(c3nc(-c4cc(Cl)cc(Cl)c4Cl)nc-3n(C)c2=O)N1.Cl [PSB 10 hydrochloride, reference compound]
0.0075	2.54	98 ± 1	32 ± 1	OC[C@H]1O[C@@H](n2cnc3c(NCCCc4ccccc4)ncnc32)[C@H](O)[C@@H]1O [Compound 4]
